The values below come from PMC6478789, “A chemical toolbox for the study of bromodomains and epigenetic signaling” (Nature Communications, 2019).

The target of experiment [1] is T1, HAT1 (Homo sapiens, UniProt O14929).
T1 sequence (O14929 1-419): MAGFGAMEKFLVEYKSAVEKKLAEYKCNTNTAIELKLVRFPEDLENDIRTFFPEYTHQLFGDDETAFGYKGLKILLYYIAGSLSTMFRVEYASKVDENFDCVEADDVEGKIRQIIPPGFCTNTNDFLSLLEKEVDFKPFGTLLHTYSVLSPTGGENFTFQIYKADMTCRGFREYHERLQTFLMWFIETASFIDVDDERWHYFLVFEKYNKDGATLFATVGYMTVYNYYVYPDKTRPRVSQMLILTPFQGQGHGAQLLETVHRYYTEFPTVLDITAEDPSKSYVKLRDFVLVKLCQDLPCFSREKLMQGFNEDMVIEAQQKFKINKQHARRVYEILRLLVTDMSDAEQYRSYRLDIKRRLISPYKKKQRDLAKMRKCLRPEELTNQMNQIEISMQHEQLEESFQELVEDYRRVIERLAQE
Put plainly: Histone acetyltransferase (HAT) activity assay. Type of experiment: biochemical. The conditions noted are these: for activity at 1 µM / activity at 10 µM: read-out: HATs Activity (%).

The target in experiment [2] is T2, MYST1 (Homo sapiens, UniProt Q9H7Z6).
T2 sequence (Q9H7Z6 1-458): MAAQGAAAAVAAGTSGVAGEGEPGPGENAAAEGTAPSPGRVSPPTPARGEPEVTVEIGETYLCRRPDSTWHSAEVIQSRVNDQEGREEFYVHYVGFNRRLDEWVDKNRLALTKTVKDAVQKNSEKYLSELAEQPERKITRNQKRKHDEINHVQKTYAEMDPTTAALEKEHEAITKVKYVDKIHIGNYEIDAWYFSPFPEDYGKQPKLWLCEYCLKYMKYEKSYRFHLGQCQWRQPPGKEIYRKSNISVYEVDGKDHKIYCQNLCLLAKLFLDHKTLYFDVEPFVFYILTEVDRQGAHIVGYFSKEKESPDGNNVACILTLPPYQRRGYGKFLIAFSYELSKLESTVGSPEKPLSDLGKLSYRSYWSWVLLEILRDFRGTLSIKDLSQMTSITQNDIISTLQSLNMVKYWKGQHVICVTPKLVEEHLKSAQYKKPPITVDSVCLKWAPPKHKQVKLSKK
The experiment in a line: Histone acetyltransferase (HAT) activity assay. The class given is biochemical. The conditions noted are these: for activity at 1 µM / activity at 10 µM: read-out: HATs Activity (%).

The target of experiment [3] is MYST3 (Homo sapiens, UniProt Q92794). Put plainly: Histone acetyltransferase (HAT) activity assay. The class given is biochemical. The conditions noted are these: for activity at 1 µM / activity at 10 µM: read-out: HATs Activity (%).
The target in experiment [4] is EP300 (Homo sapiens, UniProt Q09472). Put plainly: Histone acetyltransferase (HAT) activity assay. Type of experiment: biochemical. To be noted: for activity at 1 µM / activity at 10 µM: read-out: HATs Activity (%).
Experiment [5] deals with TDRD3 (Homo sapiens, UniProt Q9H7E2). Put plainly: Temperature shift assay (non-BRD reader domains). The class given is binding. To be noted: 10µM compound. As for the experimental part: (§1) Temperature shift assays have been described by Fedorov et al.[46]. Recombinant protein domains (bromodomain or kinases) at a concentration of 2 μM in 10 mM HEPES, pH 7.5, and 500 mM NaCl were mixed with 10 μM of chemical probes. Temperature-dependent protein unfolding profiles were measured using a Real-Time PCR Mx3005p machine (Stratagene).
(§2) Wu et al., Supplementary figures and tables 14
(§3) Supplementary Table 3: Selectivity screening data (non-BRD reader domains):
(§4) Temperature shift assay data of BRD probes screened against a diver se panel of methyl-lysine
(§5) reader domains. Compounds were screened a concentration of 10 µM. Shown are temperature

Experiment [6] deals with EED (Homo sapiens, UniProt O75530). The experiment in a line: Temperature shift assay (non-BRD reader domains). The class given is binding. The conditions noted are these: 10µM compound. As to the method:
as §1, §2, §3, §4, §5

The target of experiment [7] is BRPF3 (Homo sapiens, UniProt Q9ULD4). Put plainly: Temperature shift assay (non-BRD reader domains). The class given is binding. To be noted: 10µM compound. As for the experimental part:
as §1, §2, §3, §4, §5

The test system of experiment [8] is RBBP1. Put plainly: Temperature shift assay (non-BRD reader domains). The class given is binding. To be noted: 10µM compound. As to the method:
as §1, §2, §3, §4, §5

Experiment [9] addresses WDR5 (Homo sapiens, UniProt P61964). The experiment in a line: Temperature shift assay (non-BRD reader domains). The class given is binding. To be noted: 10µM compound. As to the method:
as §1, §2, §3, §4, §5

The target of experiment [10] is GCN5L2 (Homo sapiens, UniProt Q92830). Put plainly: Histone acetyltransferase (HAT) activity assay. The class given is biochemical. To be noted: for activity at 1 µM / activity at 10 µM: read-out: HATs Activity (%).
The target in experiment [11] is T3, UHRF1 (Homo sapiens, UniProt Q96T88).
T3 sequence (Q96T88 126-285 limits assumed): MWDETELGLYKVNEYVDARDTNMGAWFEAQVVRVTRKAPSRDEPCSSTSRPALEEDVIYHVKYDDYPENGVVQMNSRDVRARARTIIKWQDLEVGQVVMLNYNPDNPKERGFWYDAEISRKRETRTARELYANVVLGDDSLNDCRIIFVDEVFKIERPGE
Put plainly: Temperature shift assay (non-BRD reader domains). Type of experiment: binding. The conditions noted are these: 10µM compound. As to the method: as §1, §2, §3, §4, §5

Experiment [12] deals with 53BP1 (Homo sapiens, UniProt Q12888). The experiment in a line: Temperature shift assay (non-BRD reader domains). Type of experiment: binding. To be noted: 10µM compound. As for the experimental part:
as §1, §2, §3, §4, §5

For experiment [13], the target named is BRD4(1) (Homo sapiens, UniProt O60885). The experiment in a line: BROMOscan ligand-binding assay. To be noted: BROMOscan, BRD4(1).
Source text: (§6) BROMOscan is a binding assay based on the well-known KINOMEscan technology. This assay measures the binding of a DNA-tagged bromodomain to an immobilized BRD ligand. If an inhibitor is present, it will compete with the bromodomain binding to the immobilized ligand, resulting in reduction of a quantitative PCR (qPCR) signal in a dose-dependent manner.
The target of experiment [14] is BRD8(2) (Homo sapiens, UniProt Q9H0E9). Put plainly: BROMOscan ligand-binding assay. The conditions noted are these: BROMOscan, BRD8(2).
Source text: as §6
Experiment [15] concerns the target BRD8(1) (Homo sapiens, UniProt Q9H0E9). The experiment in a line: BROMOscan ligand-binding assay. To be noted: BROMOscan, BRD8(1).
Source text: as §6
The target in experiment [16] is T4, BRPF1 (Homo sapiens, UniProt P55201).
T4 sequence (P55201 628-732 limits assumed): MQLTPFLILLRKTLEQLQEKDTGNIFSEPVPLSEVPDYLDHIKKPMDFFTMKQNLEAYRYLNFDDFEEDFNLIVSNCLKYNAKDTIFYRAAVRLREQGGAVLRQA
Put plainly: BROMOscan ligand-binding assay. To be noted: BROMOscan, BRPF1.
Source text: as §6

The target in experiment [17] is CREBBP (Homo sapiens, UniProt Q92793). Put plainly: BROMOscan ligand-binding assay. To be noted: BROMOscan, CREBBP.
Source text: as §6
The target of experiment [18] is BRD3(1) (Homo sapiens, UniProt Q15059). The experiment in a line: BROMOscan ligand-binding assay. To be noted: BROMOscan, BRD3(1).
Source text: as §6
The target in experiment [19] is T5, TRIM24 (Homo sapiens, UniProt O15164).
T5 sequence (O15164 899-1004 limits assumed): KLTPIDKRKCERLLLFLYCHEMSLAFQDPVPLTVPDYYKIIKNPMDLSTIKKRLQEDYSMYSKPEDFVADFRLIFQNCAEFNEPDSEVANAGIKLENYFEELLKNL
Put plainly: BROMOscan ligand-binding assay. To be noted: BROMOscan, TRIM24(Bromo.).
Source text: as §6

Experiment [20] deals with BRD2(1) (Homo sapiens, UniProt P25440). Put plainly: BROMOscan ligand-binding assay. The conditions noted are these: BRD2(1).
Chain of BRD2(1) (P25440 74-180 limits assumed): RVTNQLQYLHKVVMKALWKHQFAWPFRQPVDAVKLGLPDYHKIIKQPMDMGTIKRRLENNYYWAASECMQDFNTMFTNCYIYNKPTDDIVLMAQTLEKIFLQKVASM
Source text: as §6

Chain of TDRD3 (Q9H7E2 555-615 limits assumed, species assumed): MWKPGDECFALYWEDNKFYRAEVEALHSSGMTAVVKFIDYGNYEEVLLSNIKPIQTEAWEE
Chain of BRPF3 (Q9ULD4 1076-1159 limits assumed, species assumed): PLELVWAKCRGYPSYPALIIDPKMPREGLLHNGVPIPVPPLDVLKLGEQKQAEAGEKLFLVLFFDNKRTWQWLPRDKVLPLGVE
Chain of 53BP1 (Q12888 1484-1603 limits assumed, species assumed): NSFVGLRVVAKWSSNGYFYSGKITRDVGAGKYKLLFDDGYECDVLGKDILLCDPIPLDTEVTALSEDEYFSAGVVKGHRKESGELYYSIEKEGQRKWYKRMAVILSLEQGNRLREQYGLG
Chain of EED (O75530 whole entry, species assumed, the tested form may be a part): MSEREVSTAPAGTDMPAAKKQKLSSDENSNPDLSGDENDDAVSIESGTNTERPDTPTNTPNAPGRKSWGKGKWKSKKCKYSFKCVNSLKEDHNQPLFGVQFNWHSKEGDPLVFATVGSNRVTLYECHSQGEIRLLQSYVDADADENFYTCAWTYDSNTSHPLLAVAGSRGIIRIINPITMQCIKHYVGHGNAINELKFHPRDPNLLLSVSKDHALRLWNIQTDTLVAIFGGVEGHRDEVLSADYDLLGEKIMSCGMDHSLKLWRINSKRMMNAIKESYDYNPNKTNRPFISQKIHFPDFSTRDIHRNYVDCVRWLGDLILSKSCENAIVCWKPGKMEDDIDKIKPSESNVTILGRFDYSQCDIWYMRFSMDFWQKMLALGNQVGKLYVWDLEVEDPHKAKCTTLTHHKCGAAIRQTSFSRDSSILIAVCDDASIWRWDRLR
Chain of MYST3 (Q92794 whole entry, species assumed): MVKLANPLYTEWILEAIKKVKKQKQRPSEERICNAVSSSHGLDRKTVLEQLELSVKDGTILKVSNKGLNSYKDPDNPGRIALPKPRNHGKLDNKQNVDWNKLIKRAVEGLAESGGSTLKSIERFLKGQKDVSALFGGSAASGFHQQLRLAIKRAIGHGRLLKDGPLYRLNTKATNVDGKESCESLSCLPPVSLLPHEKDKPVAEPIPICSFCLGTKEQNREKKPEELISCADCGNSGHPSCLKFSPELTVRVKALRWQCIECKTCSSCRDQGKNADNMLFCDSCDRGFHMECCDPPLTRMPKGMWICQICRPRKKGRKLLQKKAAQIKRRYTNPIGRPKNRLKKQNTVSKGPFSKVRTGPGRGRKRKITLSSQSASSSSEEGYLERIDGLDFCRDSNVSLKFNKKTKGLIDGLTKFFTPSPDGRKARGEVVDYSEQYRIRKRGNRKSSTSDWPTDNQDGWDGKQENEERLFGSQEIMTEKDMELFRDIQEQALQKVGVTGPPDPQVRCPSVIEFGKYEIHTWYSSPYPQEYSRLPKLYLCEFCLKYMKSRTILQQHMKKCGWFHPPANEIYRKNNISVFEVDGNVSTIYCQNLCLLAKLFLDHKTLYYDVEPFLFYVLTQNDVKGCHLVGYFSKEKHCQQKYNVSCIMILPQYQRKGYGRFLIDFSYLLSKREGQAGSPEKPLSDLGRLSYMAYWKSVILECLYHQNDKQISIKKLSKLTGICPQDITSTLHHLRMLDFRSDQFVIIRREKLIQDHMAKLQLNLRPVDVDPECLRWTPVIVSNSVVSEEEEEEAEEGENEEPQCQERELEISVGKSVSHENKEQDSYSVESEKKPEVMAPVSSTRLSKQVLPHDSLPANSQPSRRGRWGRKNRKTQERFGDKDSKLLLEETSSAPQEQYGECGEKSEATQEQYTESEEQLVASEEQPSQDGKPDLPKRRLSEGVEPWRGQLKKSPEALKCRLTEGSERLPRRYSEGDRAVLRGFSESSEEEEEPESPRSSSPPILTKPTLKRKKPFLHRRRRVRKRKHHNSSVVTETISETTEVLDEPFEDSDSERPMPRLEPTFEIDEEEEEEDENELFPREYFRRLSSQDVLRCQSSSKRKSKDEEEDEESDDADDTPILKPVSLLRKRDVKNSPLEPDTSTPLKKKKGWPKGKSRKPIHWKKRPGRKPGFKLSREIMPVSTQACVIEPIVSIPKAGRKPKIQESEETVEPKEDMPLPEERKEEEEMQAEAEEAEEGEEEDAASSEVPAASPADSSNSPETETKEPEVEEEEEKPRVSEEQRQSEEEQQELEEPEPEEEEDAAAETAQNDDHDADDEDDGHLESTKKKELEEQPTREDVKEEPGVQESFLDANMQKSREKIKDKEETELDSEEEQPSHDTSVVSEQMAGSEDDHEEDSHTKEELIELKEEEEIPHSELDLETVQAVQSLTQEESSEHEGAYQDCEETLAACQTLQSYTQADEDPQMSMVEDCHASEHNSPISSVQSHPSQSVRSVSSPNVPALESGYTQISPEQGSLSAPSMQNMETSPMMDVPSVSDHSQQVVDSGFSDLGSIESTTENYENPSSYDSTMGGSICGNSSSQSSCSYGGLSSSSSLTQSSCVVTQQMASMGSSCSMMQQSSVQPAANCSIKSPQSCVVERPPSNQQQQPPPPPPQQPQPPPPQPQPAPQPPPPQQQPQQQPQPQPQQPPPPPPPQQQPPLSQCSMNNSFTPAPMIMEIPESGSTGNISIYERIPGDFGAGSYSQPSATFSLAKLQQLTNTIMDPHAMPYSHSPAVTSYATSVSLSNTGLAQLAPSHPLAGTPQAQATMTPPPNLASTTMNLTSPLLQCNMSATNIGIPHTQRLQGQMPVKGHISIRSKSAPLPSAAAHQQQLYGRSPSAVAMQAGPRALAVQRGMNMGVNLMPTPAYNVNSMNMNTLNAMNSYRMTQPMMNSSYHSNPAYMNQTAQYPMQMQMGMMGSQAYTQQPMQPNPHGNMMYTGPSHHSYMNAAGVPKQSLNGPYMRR
Chain of GCN5L2 (Q92830 whole entry, species assumed): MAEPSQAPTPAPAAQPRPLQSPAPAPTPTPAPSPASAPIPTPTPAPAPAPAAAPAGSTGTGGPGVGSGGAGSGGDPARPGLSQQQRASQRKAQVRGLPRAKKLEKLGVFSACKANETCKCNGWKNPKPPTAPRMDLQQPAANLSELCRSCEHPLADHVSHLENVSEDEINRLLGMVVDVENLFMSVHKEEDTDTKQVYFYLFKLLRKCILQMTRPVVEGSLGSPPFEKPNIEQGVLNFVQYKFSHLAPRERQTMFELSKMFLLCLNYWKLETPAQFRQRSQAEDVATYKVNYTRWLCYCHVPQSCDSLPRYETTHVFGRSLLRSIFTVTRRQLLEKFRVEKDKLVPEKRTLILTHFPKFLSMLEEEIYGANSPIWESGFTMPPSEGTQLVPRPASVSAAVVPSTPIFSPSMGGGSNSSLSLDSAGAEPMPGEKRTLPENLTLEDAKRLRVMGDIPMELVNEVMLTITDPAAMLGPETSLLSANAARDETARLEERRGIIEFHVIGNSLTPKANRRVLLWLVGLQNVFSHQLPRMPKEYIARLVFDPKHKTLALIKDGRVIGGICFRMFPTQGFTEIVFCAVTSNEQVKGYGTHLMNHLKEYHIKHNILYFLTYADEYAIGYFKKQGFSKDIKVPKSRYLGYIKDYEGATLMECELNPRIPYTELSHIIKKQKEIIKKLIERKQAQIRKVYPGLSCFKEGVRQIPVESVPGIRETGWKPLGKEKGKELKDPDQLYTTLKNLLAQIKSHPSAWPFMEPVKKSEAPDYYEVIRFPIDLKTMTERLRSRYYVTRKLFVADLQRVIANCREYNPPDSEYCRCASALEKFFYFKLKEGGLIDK
Chain of BRD8(2) (Q9H0E9 1099-1207 limits assumed): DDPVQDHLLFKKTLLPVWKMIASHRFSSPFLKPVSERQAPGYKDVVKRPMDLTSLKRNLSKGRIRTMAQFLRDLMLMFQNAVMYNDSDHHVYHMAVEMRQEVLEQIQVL
Chain of BRD8(1) (Q9H0E9 706-811 limits assumed): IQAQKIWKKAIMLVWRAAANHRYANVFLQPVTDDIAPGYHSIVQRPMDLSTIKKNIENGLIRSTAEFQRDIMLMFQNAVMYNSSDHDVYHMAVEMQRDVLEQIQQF
Chain of BRD3(1) (Q15059 34-140 limits assumed): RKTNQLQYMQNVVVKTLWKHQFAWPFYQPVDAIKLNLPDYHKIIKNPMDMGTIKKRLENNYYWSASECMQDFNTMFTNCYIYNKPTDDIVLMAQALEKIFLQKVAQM
Chain of CREBBP (Q92793 1085-1192 limits assumed): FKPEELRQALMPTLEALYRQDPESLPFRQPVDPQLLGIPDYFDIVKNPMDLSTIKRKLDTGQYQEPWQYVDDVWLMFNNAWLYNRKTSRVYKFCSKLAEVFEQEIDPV

Take `Cc1nnc2c3ccccc3c(N[C@@H](C)[C@H](c3ccccc3)N(C)C)nn12` [L-Moses]: the activity at 1 µM worked out at 100% in experiment [1] (1µM); 97% in [2] (1µM); 92% in experiment [3] (1µM); 94% in [4] (1µM); 99% in experiment [10] (1µM). Also, the activity at 10 µM turned out to be 95% in [1] (10µM); 96% in experiment [2] (10µM); 90% in experiment [3] (10µM); 90% in [4] (10µM); 95% in [10] (10µM). Moreover, the “Tm (C) 10µM, temperature shift” value is -0.9 Kelvin in experiment [5]; -0.3 Kelvin in experiment [6]; 1.0 Kelvin in [7]; -0.4 Kelvin in experiment [8]; 0.5 Kelvin in experiment [9].
In the case of `CN(C)CCCOc1ccc(-c2cc(NCCCn3cccn3)nc(S(C)(=O)=O)n2)cc1` [TP-238], the activity at 1 µM in experiment [1] (1µM) was found to be 93%; in experiment [2] (1µM), 99%; in experiment [3] (1µM), 97%; in experiment [4] (1µM) it was 99%; in experiment [10] (1µM), 96%. In addition, the activity at 10 µM in experiment [1] (10µM) was determined as 100%; in experiment [2] (10µM), 97%; in experiment [3] (10µM) it was 99%; in experiment [4] (10µM), 95%; in experiment [10] (10µM) it was 92%. Moreover, the “Tm (C) 10µM, temperature shift” value in [5] was -0.7 Kelvin; in [11], 0.0 Kelvin; in [6] it was -0.3 Kelvin; in [7] it was 0.2 Kelvin; in [8], -0.4 Kelvin; in [9], 0.2 Kelvin. In experiment [12], the “Tm (C) 10µM, temperature shift” value turned out to be 0.4 Kelvin.
For `Cc1c(NC(=O)c2cc(C(N)=O)nc3cc(F)ccc23)c(C(F)(F)F)nn1Cc1ccc(C(C)(C)C)cc1` [BAY-588], the activity at 1 µM was 99% in [1] (1µM); 100% in [2] (1µM); 99% in [3] (1µM); 103% in experiment [4] (1µM); 94% in experiment [10] (1µM). The activity at 10 µM is 97% in experiment [1] (10µM); 93% in experiment [2] (10µM); 96% in [3] (10µM); 99% in experiment [4] (10µM); 95% in [10] (10µM). Moreover, the “Tm (C) 10µM, temperature shift” value is recorded as -5.3 Kelvin in experiment [5]; -0.4 Kelvin in experiment [11]; -0.5 Kelvin in experiment [6]; -0.1 Kelvin in experiment [8]; -7.3 Kelvin in experiment [9]; -2.3 Kelvin in experiment [12].
`Cc1cc2c(cc1N1C(=O)c3cccc4c(CCCO)ccc(c34)C1=O)n(C)c(=O)n2C` [BAY-299]: the activity at 1 µM in experiment [1] (1µM) is 100%; in [2] (1µM), 99%; in experiment [3] (1µM) it was 98%; in experiment [4] (1µM), 95%; in experiment [10] (1µM), 99%. Besides, the activity at 10 µM came to 93% in experiment [1] (10µM); 99% in [2] (10µM); 85% in experiment [3] (10µM); 93% in [4] (10µM); 103% in [10] (10µM). Also, the “Tm (C) 10µM, temperature shift” value is -1.4 Kelvin in experiment [5]; 1.5 Kelvin in experiment [7]; -1.0 Kelvin in experiment [8]; 0.2 Kelvin in experiment [9]; 0.3 Kelvin in experiment [12].
In the case of `COc1cc(Cl)c(C(=O)N[C@@H](CN[C@H]2CC[C@@H](N)CC2)Cc2ccc(C#N)cc2)cc1-c1ccc(CN[C@H](C)c2ccc(C)cc2)o1` [BAY-850], the activity at 1 µM was 101% in [1] (1µM); 93% in [2] (1µM); 96% in experiment [3] (1µM); 98% in experiment [4] (1µM); 99% in [10] (1µM). Moreover, the activity at 10 µM in experiment [1] (10µM) was 101%; in [2] (10µM), 94%; in experiment [3] (10µM) it was 97%; in experiment [4] (10µM), 87%; in [10] (10µM), 102%. In addition, the “Tm (C) 10µM, temperature shift” value in experiment [5] is -1.8 Kelvin; in [11] it was -0.3 Kelvin; in experiment [7], -0.4 Kelvin; in experiment [8], -1.0 Kelvin; in experiment [9], 0.2 Kelvin; in experiment [12] it was -0.7 Kelvin.
With `Cc1cc(=O)n(C)c2cc(N3C(=O)CC[C@H](NS(=O)(=O)CC(C)C)[C@H]3c3ccc(Cl)cc3)ccc12` [LP-99], the Kd (usually a measure of binding affinity in units of concentration) in experiment [13] was 46 µM; in [14], above 50 µM; in [15], above 50 µM; in experiment [16] it was 43 µM; in experiment [17] it was above 50 µM; in [18], 44 µM. The Kd in experiment [19] and in [20] was above 50 µM throughout. Further, the “HATs Activity (%)” value in [1] (1µM) was 104%; in experiment [1] (10µM), 95%; in [2] (1µM) it was 90%; in experiment [2] (10µM) it was 88%; in [3] (1µM), 96%; in [3] (10µM) it was 100%. Further, the “HATs Activity (%)” value is reported as 99% in experiment [4] (1µM), 98% in [4] (10µM), 92% in experiment [10] (1µM) and 89% in experiment [10] (10µM).
